# Test results from US20260184675A1, “CHIRAL ISOMERIC SULFITE COMPOUND AND APPLICATION THEREOF” (Chengdu Hanova BioSciences Co., Ltd, priority 2024, published 2026).
# Assays:
# Assay type in all cases: in vivo
# [1] = tested on: eggs of Spodoptera litura; assay: Effect on hatching of eggs of Spodoptera litura, egg piece soaking; details: 500 ppm; for Hatching rate (%), Replicate 1 / Hatching rate (%), Replicate 2 / Hatching rate (%), Replicate 3 / Number of unhatched larvae 4 days after insecticide delivery, Replicate 1 / Number of unhatched larvae 4 days after insecticide delivery, Replicate 2 / Number of unhatched larvae 4 days after insecticide delivery, Replicate 3: Spodoptera litura eggs; for Hatching rate (%), Replicate 1 / Hatching rate (%), Replicate 2 / Hatching rate (%), Replicate 3: 4 days after delivery; for Number of unhatched larvae 4 days after insecticide delivery, Replicate 1 / Number of unhatched larvae 4 days after insecticide delivery, Replicate 2 / Number of unhatched larvae 4 days after insecticide delivery, Replicate 3: soaked 10 minutes
# Outline: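 Egg pieces of about 60 eggs were soaked 10 min in test agent at 500 ppm, blotted, then held singly at 24±1 °C, 80±10% RH, 12:12 L:D. Hatched and unhatched eggs were counted on day 4 to give hatching rate and control effect; 3 replicates.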
# eggs of Aleyrodidae = assay: Effect on hatching of eggs of Aleyrodidae, leaf disc method; details: 10 ppm; for Hatching rate (%), Replicate 1 / Hatching rate (%), Replicate 2 / Hatching rate (%), Replicate 3 / Number of hatched larvae 5 days after insecticide delivery, Replicate 1 / Number of hatched larvae 5 days after insecticide delivery, Replicate 2 / Number of hatched larvae 5 days after insecticide delivery, Replicate 3: Aleyrodidae eggs; for Hatching rate (%), Replicate 1 / Hatching rate (%), Replicate 2 / Hatching rate (%), Replicate 3: 5 days after delivery; for Number of hatched larvae 5 days after insecticide delivery, Replicate 1 / Number of hatched larvae 5 days after insecticide delivery, Replicate 2 / Number of hatched larvae 5 days after insecticide delivery, Replicate 3: leaf disc
# Outline: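 Inhibition of Aleyrodidae egg hatching was tested with a leaf disc method at 10 ppm. Egg numbers on each disc were counted under a microscope before treatment. Discs bearing eggs were soaked for 10 seconds in clear water or test solution, removed, and kept under moist conditions. Hatching was checked five days after insecticide delivery and hatched larvae were counted.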
# eggs of Thrips = assay: Effect on hatching of eggs of Thrips, leaf disc method; details: 100 ppm; for Hatching rate (%): 5 days after insecticide delivery
# Outline: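 Thrip egg hatching was tested by the leaf disc method on Vicia faba discs 2.0 cm across, placed over wetted filter paper. Egg numbers on each disc were counted under a microscope before treatment. Discs were then dipped for 10 seconds in clean water or a compound solution at 100 ppm. They were kept moist under normal conditions, and hatching was surveyed five days after insecticide delivery.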
# [2] = tested on: eggs of Tetranychus urticae; assay: Effect on hatching of eggs of Tetranychus urticae, leaf disc method; details: 5 ppm; for Hatching rate (%): 5 days after insecticide delivery
# Outline: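 Twenty adult female Tetranychus urticae mites were placed on 2.0 cm Vicia faba leaf discs over wetted filter paper in lidded dishes kept moist, and removed within 36 hours. Eggs on each disc were counted under a microscope. The egg-bearing discs were dipped for 10 seconds in a compound solution at 5 ppm or in clear water, then kept moist, and hatching was checked five days after treatment.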
# [3] = Replicate 1, listed as 1′-(S, S)
# [4] = Replicate 2, listed as 1′-(S, S)
# [5] = Replicate 3, listed as 1′-(S, S)
structure (smiles),measurement,setting,value
"CC(COc1ccc(Cl)cc1Cl)OS(=O)OCCF [1′-(S,S)]","Hatching rate (%), Replicate 1","[1]; listed as 1′-(S, S)",64.52%
same,"Hatching rate (%), Replicate 2","[1]; listed as 1′-(S, S)",63.79%
same,"Hatching rate (%), Replicate 3","[1]; listed as 1′-(S, S)",66.07%
same,"Number of unhatched larvae 4 days after insecticide delivery, Replicate 1","[1]; listed as 1′-(S, S)",22
same,"Number of unhatched larvae 4 days after insecticide delivery, Replicate 2","[1]; listed as 1′-(S, S)",21
same,"Number of unhatched larvae 4 days after insecticide delivery, Replicate 3","[1]; listed as 1′-(S, S)",19
same,"Hatching rate (%), Replicate 1","eggs of Aleyrodidae; listed as 1′-(S, S)",15.15%
same,"Hatching rate (%), Replicate 2","eggs of Aleyrodidae; listed as 1′-(S, S)",16.19%
same,"Hatching rate (%), Replicate 3","eggs of Aleyrodidae; listed as 1′-(S, S)",15.38%
same,"Number of hatched larvae 5 days after insecticide delivery, Replicate 1","eggs of Aleyrodidae; listed as 1′-(S, S)",20
same,"Number of hatched larvae 5 days after insecticide delivery, Replicate 2","eggs of Aleyrodidae; listed as 1′-(S, S)",17
same,"Number of hatched larvae 5 days after insecticide delivery, Replicate 3","eggs of Aleyrodidae; listed as 1′-(S, S)",12
same,Hatching rate (%),eggs of Thrips; [3],14.10%
same,Hatching rate (%),eggs of Thrips; [4],14.63%
same,Hatching rate (%),eggs of Thrips; [5],16.04%
same,Number of hatched larvae 5 days after insecticide delivery,eggs of Thrips; [3],11
same,Number of hatched larvae 5 days after insecticide delivery,eggs of Thrips; [4],18
same,Number of hatched larvae 5 days after insecticide delivery,eggs of Thrips; [5],17
same,Hatching rate (%),[2]; [3],20.63%
same,Hatching rate (%),[2]; [4],16.22%
same,Number of hatched larvae 5 days after insecticide delivery,[2]; [3],13
same,Number of hatched larvae 5 days after insecticide delivery,[2]; [4],12
"CC[C@H](COc1ccc(Cl)cc1Cl)OS(=O)OCCF (stereo partly drawn) [19-(R,S)]",inhibitory activity on the hatching of eggs of Spodoptera litura (in words),[1],good inhibitory activities
same,"Hatching rate (%), Replicate 1",[1],15.63%
same,"Hatching rate (%), Replicate 2",[1],15.25%
same,"Hatching rate (%), Replicate 3",[1],16.67%
same,"Number of unhatched larvae 4 days after insecticide delivery, Replicate 1",[1],54
same,"Number of unhatched larvae 4 days after insecticide delivery, Replicate 2",[1],50
same,"Number of unhatched larvae 4 days after insecticide delivery, Replicate 3",[1],50
same,inhibitory activity on the hatching of eggs of Aleyrodidae (in words),eggs of Aleyrodidae,strong inhibitory activities
same,"Hatching rate (%), Replicate 1",eggs of Aleyrodidae,0.00%
same,"Hatching rate (%), Replicate 2",eggs of Aleyrodidae,0.00%
same,"Hatching rate (%), Replicate 3",eggs of Aleyrodidae,0.00%
same,"Number of hatched larvae 5 days after insecticide delivery, Replicate 1",eggs of Aleyrodidae,0
same,"Number of hatched larvae 5 days after insecticide delivery, Replicate 2",eggs of Aleyrodidae,0
same,"Number of hatched larvae 5 days after insecticide delivery, Replicate 3",eggs of Aleyrodidae,0
same,inhibitory activity on the hatching of eggs of Thrips (in words),eggs of Thrips,strong inhibitory activities
same,Hatching rate (%),eggs of Thrips; Replicate 1,0.00%
same,Hatching rate (%),eggs of Thrips; Replicate 2,0.00%
same,Hatching rate (%),eggs of Thrips; Replicate 3,0.00%
same,Number of hatched larvae 5 days after insecticide delivery,eggs of Thrips; Replicate 1,0
same,Number of hatched larvae 5 days after insecticide delivery,eggs of Thrips; Replicate 2,0
same,Number of hatched larvae 5 days after insecticide delivery,eggs of Thrips; Replicate 3,0
same,inhibitory activity on the hatching of eggs of Tetranychus urticae (in words),[2],strong inhibitory activities
same,Hatching rate (%),[2]; Replicate 1,0.00%
same,Hatching rate (%),[2]; Replicate 2,0.00%
same,Number of hatched larvae 5 days after insecticide delivery,[2]; Replicate 1,0
same,Number of hatched larvae 5 days after insecticide delivery,[2]; Replicate 2,0
